Measurements reported in patent US8269008B2, “Oxazolopyridine and isoxazolopyridine derivatives for use in the treatment of HIF-mediated conditions” (FibroGen, Inc., priority 2007, dated 2012).

target: T1, HIF-PH2 (EGLN1) (Homo sapiens, UniProt Q9GZT9); assay: HIF-PH assay (14CO2 capture, peptide-dependent turnover); format: biochemical; conditions: Concentration 22.22 μM
T1 construct: made in house; host or cells: insect Hi5 cells
Source text: Ketoglutaric acid α-[1-^14C]-sodium salt, alpha-ketoglutaric acid sodium salt, and HPLC purified peptide may be obtained from commercial sources, e.g., Perkin-Elmer (Wellesley Mass.), Sigma-Aldrich, and SynPep Corp. (Dublin Calif.), respectively. Peptides for use in the assay may be fragments of HIFα as described above or as disclosed in International Publication WO 2005/118836, incorporated by reference herein. For example, a HLF peptide for use in the HIF-PH assay is [methoxycoumarin]-DLDLEALAPYIPADDDFQL-amide. HIF-PH, e.g., HIF-PH2 (EGLN1), can be expressed in, e.g., insect Hi5 cells, and partially purified, e.g., through a SP ion exchange chromatography column. Enzyme activity is determined by capturing ^14CO2 using an assay described by Kivirikko and Myllyla (1982, Methods Enzymol. 82:245-304). Assay reactions contain 50 mM HEPES (pH 7.4), 100 μM α-ketoglutaric acid sodium salt, 0.30 μCi/mL ketoglutaric acid α-[1-^14C]-sodium salt, 40 μM FeSO4, 1 mM ascorbate, 1541.8 units/mL Catalase, with or without 50 μM peptide substrate and various concentrations of compound of the invention. Reactions are initiated by addition of HIF-PH enzyme.
The peptide-dependent percent turnover is calculated by subtracting percent turnover in the absence of peptide from percent turnover in the presence of substrate peptide. Percent inhibition and IC50 are calculated using peptide-dependent percent turnover at given inhibitor concentrations. Calculation of IC50 values for each inhibitor is conducted using GraFit software (Erithacus Software Ltd., Surrey UK). […]

T1 sequence (Q9GZT9 whole entry, species assumed): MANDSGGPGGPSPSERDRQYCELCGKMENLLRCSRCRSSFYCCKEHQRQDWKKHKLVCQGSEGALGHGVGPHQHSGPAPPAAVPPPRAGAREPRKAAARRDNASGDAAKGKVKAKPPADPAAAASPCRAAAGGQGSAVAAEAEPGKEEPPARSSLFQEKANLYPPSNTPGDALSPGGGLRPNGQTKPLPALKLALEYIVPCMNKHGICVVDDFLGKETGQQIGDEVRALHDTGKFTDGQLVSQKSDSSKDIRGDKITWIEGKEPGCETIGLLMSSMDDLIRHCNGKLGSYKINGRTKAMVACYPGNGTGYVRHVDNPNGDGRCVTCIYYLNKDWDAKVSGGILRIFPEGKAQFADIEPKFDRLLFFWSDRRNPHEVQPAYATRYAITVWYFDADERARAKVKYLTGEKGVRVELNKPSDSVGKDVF

Row | Structure (SMILES) | inhibition at 22.22 µM [%]
1 | O=C(O)CNC(=O)c1ncc2onc(-c3ccc(Cl)cc3)c2c1O [Example 14, {[3-(4-Chloro-phenyl)-4-hydroxy-isoxazolo[5,4-c]pyridine-5-carbonyl]-amino}-acetic acid] | 98.8
2 | COc1ccc(-c2noc3cnc(C(=O)NCC(=O)O)c(O)c23)cc1 [Example 16, {[4-Hydroxy-3-(4-methoxy-phenyl)-isoxazolo[5,4-c]pyridine-5-carbonyl]-amino}-acetic acid] | 97.9
3 | O=C(O)CNC(=O)c1ncc2onc(-c3c(F)cccc3Cl)c2c1O [Example 18, {[3-(2-Chloro-6-fluoro-phenyl)-4-hydroxy-isoxazolo[5,4-c]pyridine-5-carbonyl]-amino}-acetic acid] | 88.2
4 | O=C(O)CNC(=O)c1ncc2onc(-c3ccc(F)cc3)c2c1O [Example 19, {[3-(4-Fluoro-phenyl)-4-hydroxy-isoxazolo[5,4-c]pyridine-5-carbonyl]-amino}-acetic acid] | 97.9
5 | O=C(O)CNC(=O)c1nc(Br)c2onc(-c3ccc(F)cc3)c2c1O [Example 22, {[7-Bromo-3-(4-fluoro-phenyl)-4-hydroxy-isoxazolo[5,4-c]pyridine-5-carbonyl]-amino}-acetic acid] | 98.7
6 | N#Cc1nc(C(=O)NCC(=O)O)c(O)c2c(-c3ccc(F)cc3)noc12 [Example 23, {[7-Cyano-3-(4-fluoro-phenyl)-4-hydroxy-isoxazolo[5,4-c]pyridine-5-carbonyl]-amino}-acetic acid] | 98.2
7 | O=C(O)CNC(=O)c1nc(Br)c2onc(-c3ccc(Cl)cc3)c2c1O [Example 24, {[7-Bromo-3-(4-chloro-phenyl)-4-hydroxy-isoxazolo[5,4-c]pyridine-5-carbonyl]-amino}-acetic acid] | 100
8 | N#Cc1nc(C(=O)NCC(=O)O)c(O)c2c(-c3ccc(Cl)cc3)noc12 [Example 25, {[3-(4-Chloro-phenyl)-7-cyano-4-hydroxy-isoxazolo[5,4-c]pyridine-5-carbonyl]-amino}-acetic acid] | 98.7
9 | Cc1nc(C(=O)NCC(=O)O)c(O)c2c(-c3ccc(F)cc3)noc12 [Example 26, {[3-(4-Fluoro-phenyl)-4-hydroxy-7-methyl-isoxazolo[5,4-c]pyridine-5-carbonyl]-amino}-acetic acid] | 93.8
10 | C#Cc1nc(C(=O)NCC(=O)O)c(O)c2c(-c3ccc(Cl)cc3)noc12 [Example 28, {[3-(4-Chloro-phenyl)-7-ethynyl-4-hydroxy-isoxazolo[5,4-c]pyridine-5-carbonyl]-amino}-acetic acid] | 96.7
11 | O=C(O)CNC(=O)c1ncc2onc(-c3cccc(OC(F)(F)F)c3)c2c1O [Example 32, {[4-Hydroxy-3-(3-trifluoromethoxy-phenyl)-isoxazolo[5,4-c]pyridine-5-carbonyl]-amino}-acetic acid] | 99.1
12 | O=C(O)CNC(=O)c1ncc2onc(-c3ccc(C(F)(F)F)cc3)c2c1O [Example 34, {[4-Hydroxy-3-(4-trifluoromethyl-phenyl)-isoxazolo[5,4-c]pyridine-5-carbonyl]-amino}-acetic acid] | 97.8

Second part, the compound after the results:

Row | inhibition at 22.22 µM [%] | Structure (SMILES)
13 | 98.4 | O=C(O)CNC(=O)c1nc(-c2ccccc2)c2onc(-c3ccccc3)c2c1O [Example 13, [(4-Hydroxy-3,7-diphenyl-isoxazolo[5,4-c]pyridine-5-carbonyl)-amino]-acetic acid]
14 | 95.7 | O=C(O)CNC(=O)c1ncc2onc(-c3ccccc3Cl)c2c1O [Example 15, {[3-(2-Chloro-phenyl)-4-hydroxy-isoxazolo[5,4-c]pyridine-5-carbonyl]-amino}-acetic acid]
15 | 98.6 | O=C(O)CNC(=O)c1ncc2onc(-c3cccc(Cl)c3)c2c1O [Example 17, {[3-(3-Chloro-phenyl)-4-hydroxy-isoxazolo[5,4-c]pyridine-5-carbonyl]-amino}-acetic acid]
16 | 98.5 | N#Cc1nc(C(=O)NCC(=O)O)c(O)c2c(-c3ccccc3)noc12 [Example 20, [(7-Cyano-4-hydroxy-3-phenyl-isoxazolo[5,4-c]pyridine-5-carbonyl)-amino]-acetic acid]
17 | 99.4 | O=C(O)CNC(=O)c1ncc2onc(-c3ccc(-c4ccccc4)cc3)c2c1O [Example 29, [(3-Biphenyl-4-yl-4-hydroxy-isoxazolo[5,4-c]pyridine-5-carbonyl)-amino]-acetic acid]
18 | 99.6 | O=C(O)CNC(=O)c1nc(-c2cccnc2)c2onc(-c3ccccc3)c2c1O [Example 33, [(4-Hydroxy-3-phenyl-7-pyridin-3-yl-isoxazolo[5,4-c]pyridine-5-carbonyl)-amino]-acetic acid]
19 | 86.3 | O=C(O)CNC(=O)c1ncc2onc(-c3ccccc3OC(F)(F)F)c2c1O [Example 35, {[4-Hydroxy-3-(2-trifluoromethoxy-phenyl)-isoxazolo[5,4-c]pyridine-5-carbonyl]-amino}-acetic acid]

same assay, conditions: Concentration 200.00 μM

Row | Structure (SMILES) | inhibition at 200 µM [%] | % Inhibition (HIF-PH2) [%]
20 | Cc1nc(C(=O)NCC(=O)O)c(O)c2c(-c3ccc(Cl)cc3)noc12 [Example 21, {[3-(4-Chloro-phenyl)-4-hydroxy-7-methyl-isoxazolo[5,4-c]pyridine-5-carbonyl]-amino}-acetic acid] | 99.4 | 
21 | O=C(O)CNC(=O)c1nc(NCC(=O)O)c2onc(-c3cccc(Cl)c3)c2c1O [Example 27, {[3-(3-Chloro-phenyl)-7-(ethanic acid-2-yl)amino-4-hydroxy-isoxazolo[5,4-c]pyridine-5-carbonyl]-amino}-acetic acid] |  | 96.45

Second part, led by results:

Row | inhibition at 200 µM [%] | Structure (SMILES) | % Inhibition (HIF-PH2) [%]
22 | 99.8 | O=C(O)CNC(=O)c1ncc2nc(-c3ccccc3)oc2c1O [Example 1, [(7-Hydroxy-2-phenyl-oxazolo[4,5-c]pyridine-6-carbonyl)-amino]-acetic acid] | 
23 | 100 | O=C(O)CNC(=O)c1ncc2nc(-c3ccc(F)cc3)oc2c1O [Example 2, {[2-(4-Fluoro-phenyl)-7-hydroxy-oxazolo[4,5-c]pyridine-6-carbonyl]-amino}-acetic acid] | 
24 | 48.9 | Cc1nc(C(=O)NCC(=O)O)c(O)c2oc(-c3ccccc3)nc12 [Example 3, [(7-Hydroxy-4-methyl-2-phenyl-oxazolo[4,5-c]pyridine-6-carbonyl)-amino]-acetic acid] | 
25 | 99.2 | CCc1nc(C(=O)NCC(=O)O)c(O)c2oc(-c3ccccc3)nc12 [Example 4, [(4-Ethyl-7-hydroxy-2-phenyl-oxazolo[4,5-c]pyridine-6-carbonyl)-amino]-acetic acid] | 
26 | 98.7 | O=C(O)CNC(=O)c1nc(-c2ccccc2)c2nc(-c3ccccc3)oc2c1O [Example 5, [(7-Hydroxy-2,4-diphenyl-oxazolo[4,5-c]pyridine-6-carbonyl)-amino]-acetic acid] | 
27 | 99 | O=C(O)CNC(=O)c1nc(C#Cc2ccccc2)c2nc(-c3ccccc3)oc2c1O [Example 6, [(7-Hydroxy-2-phenyl-4-phenylethynyl-oxazolo[4,5-c]pyridine-6-carbonyl)-amino]-acetic acid] | 
28 | 99.5 | CCCCc1nc(C(=O)NCC(=O)O)c(O)c2oc(-c3ccccc3)nc12 [Example 7, [(4-Butyl-7-hydroxy-2-phenyl-oxazolo[4,5-c]pyridine-6-carbonyl)-amino]-acetic acid] | 
29 | 97.3 | O=C(O)CNC(=O)c1nc(-c2ccc(F)cc2)c2nc(-c3ccccc3)oc2c1O [Example 8, {[4-(4-Fluoro-phenyl)-7-hydroxy-2-phenyl-oxazolo[4,5-c]pyridine-6-carbonyl]-amino}-acetic acid] | 
30 | 98.6 | O=C(O)CNC(=O)c1ncc2oc(-c3ccccc3)nc2c1O [Example 9, [(7-Hydroxy-2-phenyl-oxazolo[5,4-c]pyridine-6-carbonyl)-amino]-acetic acid] | 
31 | 99 | COc1cccc(-c2nc(C(=O)NCC(=O)O)c(O)c3oc(-c4ccccc4)nc23)c1 [Example 10, {[7-Hydroxy-4-(3-methoxy-phenyl)-2-phenyl-oxazolo[4,5-c]pyridine-6-carbonyl]-amino}-acetic acid] | 
32 | 99.9 | O=C(O)CNC(=O)c1ncc2onc(-c3ccccc3)c2c1O [Example 11, [(4-Hydroxy-3-phenyl-isoxazolo[5,4-c]pyridine-5-carbonyl)-amino]-acetic acid] | 
33 | 98.6 | Cc1nc(C(=O)NCC(=O)O)c(O)c2c(-c3ccccc3)noc12 [Example 12, [(4-Hydroxy-7-methyl-3-phenyl-isoxazolo[5,4-c]pyridine-5-carbonyl)-amino]-acetic acid] | 
34 | 100 | C[C@H](NC(=O)c1ncc2onc(-c3ccccc3)c2c1O)C(=O)O [Example 30, 2-[(4-Hydroxy-3-phenyl-isoxazolo[5,4-c]pyridine-5-carbonyl)-amino]-(S)-propionic acid] | 
35 | 61 | C[C@@H](NC(=O)c1ncc2onc(-c3ccccc3)c2c1O)C(=O)O [Example 31, 2-[(4-Hydroxy-3-phenyl-isoxazolo[5,4-c]pyridine-5-carbonyl)-amino]-(R)-propionic acid] | 
